The target in experiment [1] is T1, Tyrosinase (Agaricus bisporus) (UniProt O42713).
T1 sequence (whole entry): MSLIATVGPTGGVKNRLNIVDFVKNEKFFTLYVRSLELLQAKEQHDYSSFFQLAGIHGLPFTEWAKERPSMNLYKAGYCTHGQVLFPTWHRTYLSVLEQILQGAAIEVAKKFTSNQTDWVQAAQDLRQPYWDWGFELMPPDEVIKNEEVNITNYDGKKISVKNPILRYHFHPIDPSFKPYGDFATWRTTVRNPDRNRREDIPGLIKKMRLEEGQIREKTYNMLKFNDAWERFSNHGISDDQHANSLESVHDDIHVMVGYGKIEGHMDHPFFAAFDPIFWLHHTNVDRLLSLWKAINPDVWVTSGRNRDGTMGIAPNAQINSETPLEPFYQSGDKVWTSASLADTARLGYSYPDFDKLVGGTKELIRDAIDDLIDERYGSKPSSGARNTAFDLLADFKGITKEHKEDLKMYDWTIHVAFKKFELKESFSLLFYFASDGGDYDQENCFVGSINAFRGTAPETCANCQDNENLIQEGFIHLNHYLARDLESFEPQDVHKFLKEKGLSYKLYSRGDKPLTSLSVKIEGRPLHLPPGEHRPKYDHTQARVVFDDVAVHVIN
Nature of the experiment: Inhibition of diphenolase activity of mushroom tyrosinase at 0.041 mM.

Experiment [2] has as its target T1, Tyrosinase (Agaricus bisporus). Nature of the experiment: Inhibition of diphenolase activity of mushroom tyrosinase at 0.231 mM.
The target is the same in experiment [3]. As to the kind of experiment: Inhibition of diphenolase activity of mushroom tyrosinase at 0.042 mM.
Experiment [4] has the same target. As to the kind of experiment: Inhibition of diphenolase activity of mushroom tyrosinase at 0.064 mM.
Experiment [5] shares this target. Nature of the experiment: Inhibition of diphenolase activity of mushroom tyrosinase at 0.051 mM.
The target is the same in experiment [6]. As to the kind of experiment: Inhibition of diphenolase activity of mushroom tyrosinase at 0.074 mM.
The target is the same in experiment [7]. As to the kind of experiment: Inhibition of diphenolase activity of mushroom tyrosinase at 0.036 mM.
Experiment [8] shares this target. As to the kind of experiment: Inhibition of diphenolase activity of mushroom tyrosinase at 0.070 mM.
For experiment [9] the target is unchanged. As to the kind of experiment: Inhibition of diphenolase activity of mushroom tyrosinase at 0.044 mM.
The target is the same in experiment [10]. Nature of the experiment: Inhibition of diphenolase activity of mushroom tyrosinase at 0.050 mM.
The target is the same in experiment [11]. Nature of the experiment: Inhibition of diphenolase activity of mushroom tyrosinase at 0.056 mM.
For experiment [12] the target is unchanged. As to the kind of experiment: Inhibition of diphenolase activity of mushroom tyrosinase at 0.049 mM.
The target is the same in experiment [13]. As to the kind of experiment: Inhibition of diphenolase activity of mushroom tyrosinase at 0.053 mM.
Experiment [14] shares this target. As to the kind of experiment: Inhibition of diphenolase activity of mushroom tyrosinase at 0.083 mM.
Experiment [15] has the same target. As to the kind of experiment: Inhibition of diphenolase activity of mushroom tyrosinase at 0.093 mM.
Experiment [16] shares this target. As to the kind of experiment: Inhibition of diphenolase activity of mushroom tyrosinase at 0.055 mM.
Experiment [17] has the same target. Nature of the experiment: Inhibition of diphenolase activity of mushroom tyrosinase at 0.035 mM.
Experiment [18] has the same target. As to the kind of experiment: Inhibition of diphenolase activity of mushroom tyrosinase at 0.052 mM.
The target is the same in experiment [19]. As to the kind of experiment: Inhibition of diphenolase activity of mushroom tyrosinase at 0.034 mM.
The target is the same in experiment [20]. Nature of the experiment: Inhibition of diphenolase activity of mushroom tyrosinase at 0.011 mM.

`O=C(O)/C=C/c1ccc(O)cc1`: the inhibition in experiment [1] stood at 8.87%.

Turning to `C[N+]1(C)CCC[C@@H]1C(=O)[O-]`, the inhibition in experiment [2] came out at 11.1%.

In [3], `C[C@H]1O[C@H](O[C@@H]2[C@@H](O)[C@H](OCCc3ccc(O)c(O)c3)O[C@H](CO[C@H]3O[C@@H](CO)[C@H](O)[C@@H](O)[C@@H]3O)[C@H]2OC(=O)/C=C/c2ccc(O)c(O)c2)[C@@H](O)[C@@H](O)[C@@H]1O` showed an inhibition of 17.5%.

As to `COc1ccc(CCO[C@@H]2O[C@H](CO)[C@@H](OC(=O)/C=C/c3ccc(O)c(OC)c3)[C@H](O[C@@H]3O[C@@H](C)[C@H](O)[C@@H](O)[C@H]3O[C@@H]3OC[C@@H](O)[C@@H](O)[C@@H]3O)[C@H]2O)cc1O`, the inhibition in experiment [3] turned out to be 9.48%.

In experiment [4], `COc1cc(-c2oc3cc(O)cc(O)c3c(=O)c2O[C@@H]2O[C@H](COC(C)=O)[C@@H](O)[C@H](O)[C@H]2O)ccc1O` gave an inhibition of 23.3%.

In turn, `COc1cc([C@@H]2OC[C@@H](Cc3ccc(O[C@H]4O[C@@H](CO)[C@H](O)[C@@H](O)[C@@H]4O)c(OC)c3)[C@H]2CO)ccc1O` displayed an inhibition in experiment [4] of 12.3%.

For the molecule `O=c1c(O)c(-c2ccc(O)c(O)c2)oc2cc(O)cc(O)c12`, the inhibition in experiment [5] was found to be 49.7%.

Molecule `O=c1c(O[C@@H]2O[C@H](CO)[C@@H](O)[C@H](O)[C@H]2O)c(-c2ccc(O)cc2)oc2cc(O)cc(O)c12` registered an inhibition in experiment [6] of 24.2%.

Molecule `C[C@@H]1O[C@@H](O[C@@H]2[C@@H](O)[C@H](OCCc3ccc(O)c(O)c3)O[C@H](CO[C@@H]3O[C@H](CO)[C@@H](O)[C@H](O)[C@H]3O)[C@H]2OC(=O)/C=C/c2ccc(O)c(O)c2)[C@H](O[C@@H]2OC[C@@H](O)[C@@H](O)[C@@H]2O)[C@H](O)[C@H]1O` displayed an inhibition in [7] of 12.4%.

`COc1cc(-c2oc3cc(O)cc(O)c3c(=O)c2O[C@@H]2O[C@H](CO)[C@@H](O)[C@H](O)[C@H]2O)ccc1O` came in with an inhibition in experiment [8] of 24.2%.

`COc1cc(/C=C/C(=O)O[C@H]2[C@H](O[C@H]3O[C@H](C)[C@@H](O)[C@H](O)[C@@H]3O)[C@@H](O)[C@H](OCCc3ccc(O)c(OC)c3)O[C@@H]2CO[C@H]2OCC(O)(CO)[C@@H]2O)ccc1O` (stereo partly specified) showed an inhibition in [3] of 12.7%.

`C[C@@H]1O[C@@H](O[C@@H]2[C@@H](O)[C@H](OCCc3ccc(O)c(O)c3)O[C@H](CO)[C@H]2OC(=O)/C=C/c2ccc(O)c(O)c2)[C@H](O[C@@H]2OC[C@@H](O)[C@@H](O)[C@@H]2O)[C@H](O)[C@H]1O` returned an inhibition in [9] of 12%.

As for `COc1ccc(-c2cc(=O)c3c(OC)c(O)c(OC)cc3o2)cc1`, the inhibition in experiment [10] stood at 4.24%.

Turning to `COc1cc(C[C@@H]2CO[C@@H](c3ccc(O[C@H]4O[C@@H](CO)[C@H](O)[C@@H](O)[C@@H]4O)c(OC)c3)[C@@H]2CO)ccc1O`, the inhibition in experiment [4] was 17.7%.

`O=C(O)CC(OC(=O)/C=C/c1ccc(O)c(O)c1)C(=O)O` (stereo unspecified) gave an inhibition in experiment [11] of 4.62%.

Molecule `COc1ccc(-c2cc(=O)c3c(OC)c(OC)c(OC)cc3o2)cc1` had an inhibition in experiment [12] of 3.23%.

For `COc1ccc(-c2cc(=O)c3c(O)c(O)c(OC)cc3o2)cc1`, in [13], the inhibition came out at 2.78%.

Take `O=c1cc(-c2ccc(O)c(O)c2)oc2cc(O[C@@H]3O[C@H](CO)[C@@H](O)[C@H](O)[C@H]3O)cc(O)c12`: the inhibition in experiment [6] is 27.4%.

`C[C@@H]1O[C@@H](OC[C@H]2O[C@@H](Oc3c(-c4ccc(O)cc4)oc4cc(O)cc(O)c4c3=O)[C@H](O)[C@@H](O)[C@@H]2O)[C@H](O)[C@H](O)[C@H]1O` came in with an inhibition in experiment [11] of 16.1%.

In [7], `COc1cc(/C=C/C(=O)O[C@H]2[C@H](O[C@@H]3O[C@@H](C)[C@H](O)[C@@H](O)[C@H]3O[C@@H]3OC[C@@H](O)[C@@H](O)[C@@H]3O)[C@@H](O)[C@H](OCCc3ccc(O)c(O)c3)O[C@@H]2CO[C@@H]2O[C@H](CO)[C@@H](O)[C@H](O)[C@H]2O)ccc1O` came in with an inhibition of 15.5%.

`COc1cc(-c2cc(=O)c3c(O)cc(O)cc3o2)ccc1O` returned an inhibition in experiment [14] of 16.4%.

Turning to `O=c1cc(-c2ccc(O)cc2)oc2cc(O)cc(O)c12`, the inhibition in experiment [15] was 14%.

Consider `O=c1cc(-c2ccc(O)cc2)oc2c(O)c(O)c(O)c(O)c12`, for which, in experiment [16], the inhibition is 5.21%.

For the molecule `COc1cc(-c2oc3cc(O)cc(O)c3c(=O)c2O[C@@H]2O[C@H](COC(=O)/C=C/c3ccc(O)cc3)[C@@H](O)[C@H](O)[C@H]2O)ccc1O`, in experiment [13], the inhibition amounted to 21.1%.

Turning to `O=C(/C=C/c1ccc(O)cc1)OC[C@H]1O[C@@H](Oc2c(-c3ccc(O)c(O)c3)oc3cc(O)cc(O)c3c2=O)[C@H](O)[C@@H](O)[C@@H]1O`, the inhibition in experiment [16] was found to be 21.9%.

In turn, `COc1cc(C[C@@H]2CO[C@@H](c3ccc(O[C@H]4O[C@@H](CO)[C@H](O)[C@@H](O)[C@@H]4O)c(OC)c3)[C@@H]2CO)ccc1O[C@H]1O[C@@H](CO)[C@H](O)[C@@H](O)[C@@H]1O` yielded an inhibition in experiment [12] of 11.1%.

`C[C@@H]1O[C@@H](OC[C@H]2O[C@@H](Oc3c(-c4ccc(O)c(O)c4)oc4cc(O)cc(O)c4c3=O)[C@H](O)[C@@H](O)[C@@H]2O)[C@H](O)[C@H](O)[C@H]1O` gave an inhibition in experiment [16] of 12.7%.

Take `COc1ccc(CCO[C@@H]2O[C@H](CO[C@H]3O[C@@H](CO)[C@H](O)[C@@H](O)[C@@H]3O)[C@@H](OC(=O)/C=C/c3ccc(O)c(OC)c3)[C@H](O[C@H]3O[C@H](C)[C@@H](O)[C@H](O)[C@@H]3O)[C@H]2O)cc1O`: the inhibition in experiment [1] was determined as 22.6%.

`COc1cc(-c2cc(=O)c3c(O)cc(O[C@@H]4O[C@H](COC(=O)/C=C/c5ccc(O)cc5)[C@@H](O)[C@H](OC(=O)/C=C/c5ccc(O)cc5)[C@H]4O)cc3o2)ccc1O` returned an inhibition in [9] of 15.6%.

`COc1cc(/C=C/C(=O)O)ccc1O` gave an inhibition in experiment [17] of 6.68%.

The molecule `COc1ccc(CCO[C@@H]2O[C@H](CO)[C@@H](OC(=O)/C=C/c3ccc(O)c(OC)c3)[C@H](O[C@@H]3O[C@@H](C)[C@H](O)[C@@H](O)[C@H]3O)[C@H]2O)cc1O` registered an inhibition in [18] of 20.6%.

On to `COc1ccc(CCO[C@@H]2O[C@H](CO[C@@H]3O[C@H](CO)[C@@H](O)[C@H](O)[C@H]3O)[C@@H](OC(=O)/C=C/c3ccc(O)c(OC)c3)[C@H](O[C@@H]3O[C@@H](C)[C@H](O)[C@@H](O)[C@H]3O[C@@H]3OC[C@@H](O)[C@@H](O)[C@@H]3O)[C@H]2O)cc1O`, for which the inhibition in experiment [17] was 13.2%.

`C[C@H]1O[C@H](O[C@@H]2[C@@H](O)[C@H](O)O[C@H](CO)[C@H]2OC(=O)/C=C/c2ccc(O)c(O)c2)[C@@H](O)[C@@H](O)[C@@H]1O`: the inhibition in [19] was determined as 10.9%.

With `C[C@@H]1O[C@@H](O[C@@H]2[C@@H](O)[C@H](OCCc3ccc(O)c(O)c3)O[C@H](CO)[C@H]2OC(=O)/C=C/c2ccc(O)c(O)c2)[C@H](O)[C@H](O)[C@H]1O`, the inhibition in [13] was found to be 25.8%.

The molecule `COc1cc(/C=C/C(=O)O[C@H]2[C@H](O[C@@H]3O[C@@H](C)[C@H](O)[C@@H](O)[C@H]3O)[C@@H](O)[C@H](OCCc3ccc(O)c(O)c3)O[C@@H]2CO)ccc1O` yielded an inhibition in experiment [5] of 21.6%.

`C[C@H]1O[C@H](OC[C@H]2O[C@@H](Oc3c(-c4ccc(O)cc4)oc4cc(O)c(O)c(O)c4c3=O)[C@H](O)[C@@H](O)[C@@H]2O)[C@@H](O)[C@@H](O)[C@@H]1O` yielded an inhibition in experiment [16] of 27.1%.

`COc1cc(-c2oc3cc(O)cc(O)c3c(=O)c2O[C@@H]2O[C@H](CO[C@@H]3O[C@@H](C)[C@H](O)[C@@H](O)[C@H]3O)[C@@H](O)[C@H](O)[C@H]2O)ccc1O`: the inhibition in [13] is 13.1%.

For the molecule `O=C(/C=C/c1ccc(O)cc1)OC[C@H]1O[C@@H](Oc2c(-c3ccc(O)cc3)oc3cc(O)cc(O)c3c2=O)[C@H](O)[C@@H](O)[C@@H]1O`, the values for the inhibition in [20] and in experiment [11] were 14.7% and 30.2%, respectively.

Turning to `O=C(/C=C/c1ccc(O)c(O)c1)O[C@@H]1C[C@](O)(C(=O)O)C[C@@H](O)[C@H]1O`, the inhibition in experiment [12] came out at 7.78%.

In turn, `COc1cc(/C=C/C(=O)O[C@H]2[C@H](O[C@@H]3O[C@@H](C)[C@H](O)[C@@H](O)[C@H]3O[C@@H]3OC[C@@H](O)[C@@H](O)[C@@H]3O)[C@@H](O)[C@H](OCCc3ccc(O)c(OC)c3)O[C@@H]2CO)ccc1O` came in with an inhibition in [3] of 17.3%.
